Assays:
PANC-1 = test: Antiproliferative activity against human PANC-1 cells assessed as inhibition of cell growth incubated for 48 hrs by MTT assay; type: functional, cell-based; conditions: PANC-1, 48 h
MCF7 = test: Antiproliferative activity against human MCF7 cells assessed as inhibition of cell growth incubated for 48 hrs by MTT assay; type: functional, cell-based; conditions: MCF7, 48 h
LNCaP = test: Antiproliferative activity against human LNCaP cells assessed as inhibition of cell growth incubated for 48 hrs by MTT assay; type: functional, cell-based
[1] = target: Histone acetyltransferase p300 (Homo sapiens, UniProt Q09472); test: Inhibition of p300 HAT (unknown origin) using 3H-acetyl-CoA as substrate assessed as H3 peptide acetylation preincubated with compound for 15 mins followed by substrate addition and measured after 30 mins by microbeta scintillation counter analysis
MCF-10A = test: Antiproliferative activity against human MCF-10A cells assessed as inhibition of cell growth incubated for 48 hrs by MTT assay; type: functional, cell-based

Sequence of Histone acetyltransferase p300 (Q09472 whole entry): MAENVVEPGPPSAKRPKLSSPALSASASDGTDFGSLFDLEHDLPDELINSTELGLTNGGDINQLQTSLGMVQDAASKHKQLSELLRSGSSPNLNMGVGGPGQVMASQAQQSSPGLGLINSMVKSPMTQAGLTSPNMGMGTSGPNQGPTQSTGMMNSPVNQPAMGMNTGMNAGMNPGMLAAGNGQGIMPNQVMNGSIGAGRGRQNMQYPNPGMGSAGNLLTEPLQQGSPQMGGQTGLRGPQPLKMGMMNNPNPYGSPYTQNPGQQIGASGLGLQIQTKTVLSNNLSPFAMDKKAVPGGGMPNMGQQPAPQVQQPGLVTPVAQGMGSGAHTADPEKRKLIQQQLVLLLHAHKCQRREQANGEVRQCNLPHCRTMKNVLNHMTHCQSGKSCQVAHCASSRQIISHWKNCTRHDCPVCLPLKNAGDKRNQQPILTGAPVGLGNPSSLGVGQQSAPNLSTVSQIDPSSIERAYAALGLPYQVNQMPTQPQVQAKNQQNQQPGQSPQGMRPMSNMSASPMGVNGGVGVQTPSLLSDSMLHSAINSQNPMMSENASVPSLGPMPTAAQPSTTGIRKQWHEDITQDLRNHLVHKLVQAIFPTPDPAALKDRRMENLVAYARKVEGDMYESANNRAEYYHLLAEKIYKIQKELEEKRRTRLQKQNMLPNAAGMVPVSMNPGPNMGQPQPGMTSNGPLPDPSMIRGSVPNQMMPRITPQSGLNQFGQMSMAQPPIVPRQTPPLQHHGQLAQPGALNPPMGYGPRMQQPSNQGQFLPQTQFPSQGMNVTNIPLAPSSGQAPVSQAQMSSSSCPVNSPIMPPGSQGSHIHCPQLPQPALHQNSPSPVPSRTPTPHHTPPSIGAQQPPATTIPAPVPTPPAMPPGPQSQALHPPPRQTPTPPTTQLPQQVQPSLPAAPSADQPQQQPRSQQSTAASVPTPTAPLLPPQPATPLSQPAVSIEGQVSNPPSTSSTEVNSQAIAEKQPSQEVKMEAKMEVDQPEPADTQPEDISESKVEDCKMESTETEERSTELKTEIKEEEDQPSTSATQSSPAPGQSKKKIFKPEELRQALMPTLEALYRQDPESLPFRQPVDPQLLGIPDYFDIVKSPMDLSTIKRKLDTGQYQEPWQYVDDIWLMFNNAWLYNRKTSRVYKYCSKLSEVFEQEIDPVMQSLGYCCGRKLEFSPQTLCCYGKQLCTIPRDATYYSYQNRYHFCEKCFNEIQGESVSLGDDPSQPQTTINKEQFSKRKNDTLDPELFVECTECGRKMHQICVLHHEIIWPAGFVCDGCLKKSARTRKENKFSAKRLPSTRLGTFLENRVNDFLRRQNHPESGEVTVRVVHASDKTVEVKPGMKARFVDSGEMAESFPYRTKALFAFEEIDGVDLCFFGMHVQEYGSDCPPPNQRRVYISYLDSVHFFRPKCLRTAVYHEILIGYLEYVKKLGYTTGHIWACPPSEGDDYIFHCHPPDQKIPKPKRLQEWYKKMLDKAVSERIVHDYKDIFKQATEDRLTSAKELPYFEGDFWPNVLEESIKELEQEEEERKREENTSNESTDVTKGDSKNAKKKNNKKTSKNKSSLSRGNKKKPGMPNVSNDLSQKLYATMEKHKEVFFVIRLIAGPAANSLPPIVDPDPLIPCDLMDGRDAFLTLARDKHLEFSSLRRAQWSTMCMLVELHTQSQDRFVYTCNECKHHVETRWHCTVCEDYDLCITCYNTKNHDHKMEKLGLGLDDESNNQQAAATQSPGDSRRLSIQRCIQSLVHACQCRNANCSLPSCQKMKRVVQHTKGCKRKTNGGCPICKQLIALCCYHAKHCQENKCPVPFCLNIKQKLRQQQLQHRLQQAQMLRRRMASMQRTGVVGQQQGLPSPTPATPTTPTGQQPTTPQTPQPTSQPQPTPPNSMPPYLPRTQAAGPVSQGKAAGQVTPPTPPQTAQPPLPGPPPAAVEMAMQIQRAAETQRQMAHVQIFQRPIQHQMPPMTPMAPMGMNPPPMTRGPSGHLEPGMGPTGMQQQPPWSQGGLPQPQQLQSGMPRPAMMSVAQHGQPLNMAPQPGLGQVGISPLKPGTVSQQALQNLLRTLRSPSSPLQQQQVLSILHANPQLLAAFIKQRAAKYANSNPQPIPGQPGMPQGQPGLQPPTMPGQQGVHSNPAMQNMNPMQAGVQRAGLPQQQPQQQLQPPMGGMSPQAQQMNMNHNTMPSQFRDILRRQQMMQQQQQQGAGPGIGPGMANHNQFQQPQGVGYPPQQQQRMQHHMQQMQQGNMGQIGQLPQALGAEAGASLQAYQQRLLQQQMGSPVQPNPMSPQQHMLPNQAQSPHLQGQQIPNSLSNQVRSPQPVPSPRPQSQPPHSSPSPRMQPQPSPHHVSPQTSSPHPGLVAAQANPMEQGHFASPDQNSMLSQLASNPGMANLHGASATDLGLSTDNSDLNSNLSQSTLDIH

`CNC(=O)Nc1ccc2c(c1)CC[C@@]21OC(=O)N(CC(=O)N(Cc2ccc(F)cc2)[C@@H](C)C(F)(F)F)C1=O` [A-485] showed an IC50 (PANC-1) greater than 30 µM, an IC50 (MCF7) greater than 30 µM and an IC50 (LNCaP) of 1.7 µM.

With `COc1cc2cc3[n+](cc2cc1OC)CCSc1cc2c(cc1-3)OCO2` the IC50 (PANC-1) was 49.5 µM, the IC50 (MCF7) was 34.9 µM and the IC50 [1] was 4.65 µM. The IC50 (LNCaP) was 28.6 µM and the IC50 (MCF-10A) was greater than 50 µM.

For `COc1cc2cc3[n+](cc2cc1OC)CCCNc1cc2c(cc1-3)OCO2`, the IC50 [1] was 9.69 µM.

In the case of `COc1ccc2cc3[n+](cc2c1OC)CCCSc1cc2c(cc1-3)OCO2`, the IC50 [1] is reported as greater than 20 µM.

With `COc1ccc2cc3[n+](cc2c1OC)CCNc1cc2c(cc1-3)OCO2` the IC50 [1] was 6.78 µM.

In the case of `COc1cc2cc3[n+](cc2cc1OC)CCN(C(C)=O)c1cc2c(cc1-3)OCO2`, the IC50 [1] is reported as 17.5 µM.

Molecule `COc1cc2cc3[n+](cc2cc1OC)CCNc1cc2c(cc1-3)OCO2` has an IC50 (PANC-1) greater than 50 µM, an IC50 (MCF7) of 36.7 µM and an IC50 [1] of 3.39 µM. The IC50 (LNCaP) was greater than 50 µM and the IC50 (MCF-10A) was greater than 50 µM.
